Patent US11479604B2, “Immunomodulatory peptides and methods for modulating the immune system in a subject” (Recepta Biopharma S.A., priority 2017, dated 2022)

Columns and labels:
[1] = system: colorectal CT26 carcinoma cells; assay: Subcutaneous syngeneic colorectal carcinoma model; type: in vivo, Balb/c mice; conditions: CT26 of moderate virulence (ATCC, CRL-2638); 300 μg i.p., 5 consecutive days
[2] = system: pancreas carcinoma Panc02; assay: Subcutaneous syngeneic pancreatic carcinoma model; type: in vivo, C57BL6 mice; conditions: 300 μg i.p., 5 doses every other day
Procedure: Male C57BL/6 mice, 6 to 8-week-old were obtained from the Center for Development of Experimental Models (CEDEME), Federal University of Sao Paulo (UNIFESP). For the in vivo metastatic model, C57BL/6 mice received one intravenous (i.v.) injection of 2×10^5 viable B16-F10-Next melanoma cells in 100 μL. […] The control group received 100 μL PBS. Twenty-two days later, mice (minimum n=3 per group) had their lungs harvested, and the number of macroscopic melanotic nodules were counted. The Ethical Committee of Federal University of São Paulo, Project no. 1234, 2011, approved all experiments with animals, according to International guidelines. For the subcutaneous model, mice were injected with 5×10^5 tumor cells suspended in 100 μL of PBS in the right flank via the subcutaneous route. The peptide (300 μg) was solubilized in 10 μL of distilled H2O and 90 μL of PBS and injected per mouse via the intraperitoneal route. The administration of the peptide was performed in 5 alternate days initiating one day after tumor challenge. Tumor longitudinal diameter (D) and transverse diameter (d) were measured every 2 days until the tumor volume reached 3,000 mm3. Animals were sacrificed when the allowed volume was reached. Volume was calculated using the formula v=Dd^2×0.52. […]

[3] = system: B16F10-Nex2 melanoma cells; assay: Therapeutic adoptive transfer of peptide-stimulated dendritic cells, metastatic melanoma; type: in vivo, syngeneic mice; conditions: DCs administered 8 days after melanoma challenge; compared to unstimulated or Rb10A1 treated DCs
Description: DCs were inoculated s.c. in syngeneic mice, 8 days after the melanoma tumor cell challenge. The B16F10-Nex2 cell lysate was not used to prime DCs in this assay to avoid excess tumor antigen derived from tumor cell lysis in vivo, and a tolerogenic response. Lung nodules of melanoma cells injected i.v. and formed after 7 days and after 12 days, from 3 independent experiments were combined to represent colonization clusters for comparison with the therapeutic experiment of FIG. 6C.

[4] = system: bone marrow derived dendritic cells; assay: CD74 receptor expression in myeloid dendritic cells; type: cell-based, mouse; conditions: murine dendritic cells
Procedure: After incubation the cells were stimulated with or without LPS (Sigma-Aldrich, Missouri, USA), at 200 ng/ml or tumor lysate (B16F10-Next cells) in the proportion of 30 DCs to 1 tumor cell, for 24 h. After incubation, the cells were harvested and stained with anti-CD74 (BV786) from BD Bioscience. Stained cells were acquired using LSRFortessa™ (Becton Dickinson, San Jose, Calif., USA) and data analysis was performed using the FlowJo V10 (TreeStar Inc., Ashland, Oreg., USA). The results are represented as percentage of CD74^+ cells in CD11b^+CD11c^+ or CD11c^+MHCII^+ population.
Protein lysates were separated by electrophoresis, and immunoblotting analyses were performed for: total AKT, total p44/42 MAPK (ERK1/2), total IKKα, total IkBα, total NF-kB p65, phospho-AKT (Ser473), phospho-ERK1/2 (Thr202/Tyr204), phospho-IKKα/β (Ser176/180), phospho-IkBα (Ser32) and phospho-NFkB p65 (Ser536). GAPDH was assayed for loading control. HRP-conjugated secondary antibodies were used, followed by incubation with the ECL substrate (Millipore, Billerica, Mass.). All primary and secondary antibodies were purchased from Cell Signaling Technologies (Beverly, Mass., USA). Anti-CD74 receptor was also assayed (Abcam, Cambridge, UK). Phosphorylation ratios were quantified using ImageJ software. Results are represented in arbitrary units normalized to untreated control lanes.

[CARGETARATFAYWGQGC], NH2 (C-C) [Rb9]
subcutaneous tumor growth [1]: significantly delayed
deaths up to the 40th day [2]: no deaths were recorded
s.c. tumor growth [2]: significantly delayed
protection by peptide-stimulated DCs (lung nodules) [3]: significant protection
expression of CD74 in CD11b+CD11c+ and CD11c+MHC-II+ cells [4]: increased expression
